Data taken from patent US20100152215A1, “METHODS OF IDENTIFYING ACTIVATORS OF LYN KINASE” (MELIOR PHARMACEUTICALS I, INC., priority 2007, published 2010).

Key:
[1] = biological target: MAPKAP5 (Homo sapiens, UniProt Q8IW41); experiment: kinase screen for inhibition or activation; assay type: biochemical; conditions: 10 μM
Method: (§1) A kinase screen was conducted in which Compound 102 (10 μM) was screened against 49 kinases for inhibition or activation. Any kinase that was activated or inhibited by at least 20% was considered to be a significant effect. Of the 49 kinases screened, Lyn kinase was activated by 51%. In a repeat experiment, Lyn kinase activity was increased by 57%.

[2] = biological target: MET (Homo sapiens, UniProt P08581); experiment: kinase screen for inhibition or activation; assay type: biochemical; conditions: 10 μM
Method: as §1

[3] = biological target: MSK1 (Homo sapiens, UniProt O75582); experiment: kinase screen for inhibition or activation; assay type: biochemical; conditions: 10 μM
Method: as §1

[4] = biological target: MST2 (Homo sapiens, UniProt Q13188); experiment: kinase screen for inhibition or activation; assay type: biochemical; conditions: 10 μM
Method: as §1

[5] = biological target: PAK2 (Homo sapiens, UniProt Q13177); experiment: kinase screen for inhibition or activation; assay type: biochemical; conditions: 10 μM
Method: as §1

[6] = biological target: PDK1 (Homo sapiens, UniProt O15530); experiment: kinase screen for inhibition or activation; assay type: biochemical; conditions: 10 μM
Method: as §1

[7] = biological target: PKA (Homo sapiens, UniProt P17612); experiment: kinase screen for inhibition or activation; assay type: biochemical; conditions: 10 μM
Method: as §1

[8] = biological target: PKCb2 (Homo sapiens, UniProt P05771); experiment: kinase screen for inhibition or activation; assay type: biochemical; conditions: 10 μM
Method: as §1

[9] = biological target: PKCz (Homo sapiens, UniProt Q05513); experiment: kinase screen for inhibition or activation; assay type: biochemical; conditions: 10 μM
Method: as §1

[10] = biological target: PKD2 (Homo sapiens, UniProt Q9BZL6); experiment: kinase screen for inhibition or activation; assay type: biochemical; conditions: 10 μM
Method: as §1

[11] = biological target: Pim2 (Homo sapiens, UniProt Q9P1W9); experiment: kinase screen for inhibition or activation; assay type: biochemical; conditions: 10 μM
Method: as §1

[12] = biological target: ROCK2 (Homo sapiens, UniProt O75116); experiment: kinase screen for inhibition or activation; assay type: biochemical; conditions: 10 μM
Method: as §1

[13] = biological target: RSK1 (Homo sapiens, UniProt Q15418); experiment: kinase screen for inhibition or activation; assay type: biochemical; conditions: 10 μM
Method: as §1

[14] = biological target: SGK1 (Homo sapiens, UniProt O00141); experiment: kinase screen for inhibition or activation; assay type: biochemical; conditions: 10 μM
Method: as §1

[15] = biological target: Src (Homo sapiens, UniProt P12931); experiment: kinase screen for inhibition or activation; assay type: biochemical; conditions: 10 μM
Method: as §1

[16] = biological target: Syc (Homo sapiens, UniProt P43405); experiment: kinase screen for inhibition or activation; assay type: biochemical; conditions: 10 μM
Method: as §1

[17] = biological target: cKit (Homo sapiens, UniProt P10721); experiment: kinase screen for inhibition or activation; assay type: biochemical; conditions: 10 μM
Method: as §1

[18] = biological target: cRAF (Homo sapiens, UniProt P04049); experiment: kinase screen for inhibition or activation; assay type: biochemical; conditions: 10 μM
Method: as §1

[19] = system: p70S6K; experiment: kinase screen for inhibition or activation; assay type: biochemical; conditions: 10 μM; inhibition
Method: as §1

[20] = biological target: Lyn (h) (Homo sapiens, UniProt P07948); experiment: Lyn kinase activation, pre-incubation then standard radiometric assay; assay type: biochemical
[21] = biological target: unphosphorylated Lyn kinase (Homo sapiens, UniProt P07948); experiment: Z'-LYTE Kinase Assay Kit-Tyr Peptide-2 Lyn kinase activation assay; assay type: biochemical; conditions: for Fold-Activation: 30 μM vs DMSO; for % Phosphorylation of Substrate: 30 μM
Method: The following example was conducted to further optimize assay conditions for detecting Compound 102-mediated activation of Lyn kinase. The assays describe below utilize the Z′-LYTE™ Kinase Assay Kit-Tyr Peptide (Invitrogen, Carlsbad, Calif.). These assay systems were originally developed to detect inhibitors of various tyrosine kinases.
The assay system used was a non-radiometric assay utilizing the Z′-LYTE™ Kinase Assay Kit-Tyr Peptide-2 (Invitrogen, Carlsbad, Calif.) for detecting activity of Lyn kinase. Buffer components were altered as described below. The lyn kinase protein used in these studies was the unphosphorylated form of the protein. Concentrations of this unphosphorylated lyn protein ranged from 25 ng/mL to 300 ng/mL. The preincubation step was lengthened from 30 minutes to 60 minutes.
The Invitrogen Reaction Buffer was used for all studies. The following additions were made to this Reaction Buffer and tested separately and compared to Reaction Buffer alone: Modification 1: Reaction Buffer with 0.1% BSA; Modification 2: Reaction Buffer with 1 mM dithiothreitol; Modification 3: Reaction Buffer with 0.01% BSA, 1 mM dithiothreitol; and Modification 4: Reaction Buffer with 0.1% β-mercaptoethanol.

[22] = biological target: Lyn (Homo sapiens, UniProt P07948); conditions: 100 μM; ATP 0 to 800 μM
[23] = Modification 1: Reaction Buffer with 0.1% BSA
[24] = Modification 2: Reaction Buffer with 1 mM dithiothreitol
[25] = Modification 3: Reaction Buffer with 0.01% BSA, 1 mM dithiothreitol
[26] = Modification 4: Reaction Buffer with 0.1% β-mercaptoethanol

Sequence of unphosphorylated Lyn kinase (P07948 whole entry): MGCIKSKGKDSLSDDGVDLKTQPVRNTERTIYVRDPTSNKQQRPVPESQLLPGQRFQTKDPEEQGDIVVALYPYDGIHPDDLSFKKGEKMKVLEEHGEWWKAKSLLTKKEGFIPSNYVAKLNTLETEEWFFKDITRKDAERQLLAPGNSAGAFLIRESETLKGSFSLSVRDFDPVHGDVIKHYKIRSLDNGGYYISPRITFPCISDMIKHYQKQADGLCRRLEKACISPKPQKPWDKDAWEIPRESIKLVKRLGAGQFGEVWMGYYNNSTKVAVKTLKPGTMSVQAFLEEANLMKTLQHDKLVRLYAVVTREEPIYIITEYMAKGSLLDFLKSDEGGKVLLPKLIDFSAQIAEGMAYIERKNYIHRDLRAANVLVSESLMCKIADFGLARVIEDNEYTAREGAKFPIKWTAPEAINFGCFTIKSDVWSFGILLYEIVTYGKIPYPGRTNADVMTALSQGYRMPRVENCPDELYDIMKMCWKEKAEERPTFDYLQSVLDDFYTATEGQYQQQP
Sequence of Lyn (h) (P07948 whole entry): as above
Sequence of Lyn (P07948 whole entry): as above
Sequence of RSK1 (Q15418 whole entry, species assumed): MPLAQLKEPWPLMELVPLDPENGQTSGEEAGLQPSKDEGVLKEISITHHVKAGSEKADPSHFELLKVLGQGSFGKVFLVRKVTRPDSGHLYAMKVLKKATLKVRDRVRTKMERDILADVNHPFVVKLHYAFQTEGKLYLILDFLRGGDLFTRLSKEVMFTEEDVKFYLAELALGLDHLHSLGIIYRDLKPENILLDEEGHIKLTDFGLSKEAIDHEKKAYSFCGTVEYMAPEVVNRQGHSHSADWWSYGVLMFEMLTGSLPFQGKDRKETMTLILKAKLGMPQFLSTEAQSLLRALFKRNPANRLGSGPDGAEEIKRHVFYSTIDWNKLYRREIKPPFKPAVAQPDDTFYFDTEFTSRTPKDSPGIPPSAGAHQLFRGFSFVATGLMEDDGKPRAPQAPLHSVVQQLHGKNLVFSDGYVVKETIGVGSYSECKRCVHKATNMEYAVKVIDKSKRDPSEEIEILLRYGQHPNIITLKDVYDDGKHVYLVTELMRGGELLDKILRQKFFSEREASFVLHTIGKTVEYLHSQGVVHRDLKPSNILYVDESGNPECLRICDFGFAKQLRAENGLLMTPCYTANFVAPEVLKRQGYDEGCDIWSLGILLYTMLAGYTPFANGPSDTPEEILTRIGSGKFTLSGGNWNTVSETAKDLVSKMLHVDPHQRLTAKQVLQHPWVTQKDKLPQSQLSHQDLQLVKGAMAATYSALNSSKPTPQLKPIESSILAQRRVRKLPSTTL
Sequence of MET (P08581 25-1390): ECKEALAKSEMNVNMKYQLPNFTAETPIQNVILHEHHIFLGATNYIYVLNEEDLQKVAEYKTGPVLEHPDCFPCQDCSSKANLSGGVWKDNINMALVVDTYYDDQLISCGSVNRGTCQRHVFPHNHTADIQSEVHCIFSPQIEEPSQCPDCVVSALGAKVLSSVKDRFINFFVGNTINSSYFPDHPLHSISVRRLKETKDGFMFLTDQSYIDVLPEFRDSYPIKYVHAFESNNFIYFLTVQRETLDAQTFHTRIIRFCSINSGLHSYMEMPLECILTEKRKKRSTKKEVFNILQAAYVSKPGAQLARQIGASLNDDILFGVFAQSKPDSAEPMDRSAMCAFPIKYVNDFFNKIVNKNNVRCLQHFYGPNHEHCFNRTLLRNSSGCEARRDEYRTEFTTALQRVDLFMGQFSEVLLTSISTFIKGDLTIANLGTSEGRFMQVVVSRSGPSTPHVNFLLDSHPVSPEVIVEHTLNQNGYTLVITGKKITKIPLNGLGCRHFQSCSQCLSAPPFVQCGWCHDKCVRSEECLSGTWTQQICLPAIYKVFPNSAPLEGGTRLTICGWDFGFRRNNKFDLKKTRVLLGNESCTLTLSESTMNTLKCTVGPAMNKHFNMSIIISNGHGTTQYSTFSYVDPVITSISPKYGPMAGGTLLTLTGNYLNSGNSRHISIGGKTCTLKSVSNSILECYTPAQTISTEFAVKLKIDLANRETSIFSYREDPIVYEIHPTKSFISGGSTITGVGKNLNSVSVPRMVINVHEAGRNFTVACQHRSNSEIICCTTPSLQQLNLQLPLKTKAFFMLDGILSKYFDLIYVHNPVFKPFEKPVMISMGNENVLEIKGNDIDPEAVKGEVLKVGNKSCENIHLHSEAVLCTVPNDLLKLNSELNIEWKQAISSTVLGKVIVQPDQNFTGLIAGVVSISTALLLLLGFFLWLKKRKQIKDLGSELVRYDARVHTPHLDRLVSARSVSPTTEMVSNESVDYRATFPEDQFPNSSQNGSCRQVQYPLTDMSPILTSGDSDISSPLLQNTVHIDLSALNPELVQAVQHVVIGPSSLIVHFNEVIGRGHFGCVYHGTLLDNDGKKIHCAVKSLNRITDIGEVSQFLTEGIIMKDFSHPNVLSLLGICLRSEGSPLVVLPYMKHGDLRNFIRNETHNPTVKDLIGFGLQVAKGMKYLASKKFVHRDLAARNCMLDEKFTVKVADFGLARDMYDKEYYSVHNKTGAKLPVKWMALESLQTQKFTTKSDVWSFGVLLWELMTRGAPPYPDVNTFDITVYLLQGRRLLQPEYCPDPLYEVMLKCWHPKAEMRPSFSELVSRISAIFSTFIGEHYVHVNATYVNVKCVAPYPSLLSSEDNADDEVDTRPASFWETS
Sequence of PKD2 (Q9BZL6 whole entry): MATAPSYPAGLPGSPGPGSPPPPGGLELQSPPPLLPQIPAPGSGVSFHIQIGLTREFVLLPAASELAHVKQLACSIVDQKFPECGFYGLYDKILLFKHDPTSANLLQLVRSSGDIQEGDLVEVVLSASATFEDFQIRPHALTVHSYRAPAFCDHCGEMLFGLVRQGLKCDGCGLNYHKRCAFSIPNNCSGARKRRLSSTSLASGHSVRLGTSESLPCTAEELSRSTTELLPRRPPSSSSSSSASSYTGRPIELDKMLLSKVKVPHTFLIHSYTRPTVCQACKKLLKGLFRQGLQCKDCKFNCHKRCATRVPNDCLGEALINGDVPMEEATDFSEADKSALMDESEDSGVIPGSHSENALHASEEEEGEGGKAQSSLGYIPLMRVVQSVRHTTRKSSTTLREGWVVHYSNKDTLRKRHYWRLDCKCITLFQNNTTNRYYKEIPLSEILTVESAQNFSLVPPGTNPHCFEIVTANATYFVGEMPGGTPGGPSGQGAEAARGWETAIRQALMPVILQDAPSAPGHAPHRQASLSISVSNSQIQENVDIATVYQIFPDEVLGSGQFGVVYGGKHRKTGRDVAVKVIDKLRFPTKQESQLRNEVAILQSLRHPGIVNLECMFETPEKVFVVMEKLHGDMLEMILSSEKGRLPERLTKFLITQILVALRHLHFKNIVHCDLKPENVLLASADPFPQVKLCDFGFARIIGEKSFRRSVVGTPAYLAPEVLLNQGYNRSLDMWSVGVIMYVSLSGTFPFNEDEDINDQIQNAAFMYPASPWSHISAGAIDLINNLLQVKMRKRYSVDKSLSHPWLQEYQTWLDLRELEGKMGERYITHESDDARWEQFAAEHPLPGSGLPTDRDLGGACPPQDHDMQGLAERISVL
Sequence of cRAF (P04049 whole entry, species assumed): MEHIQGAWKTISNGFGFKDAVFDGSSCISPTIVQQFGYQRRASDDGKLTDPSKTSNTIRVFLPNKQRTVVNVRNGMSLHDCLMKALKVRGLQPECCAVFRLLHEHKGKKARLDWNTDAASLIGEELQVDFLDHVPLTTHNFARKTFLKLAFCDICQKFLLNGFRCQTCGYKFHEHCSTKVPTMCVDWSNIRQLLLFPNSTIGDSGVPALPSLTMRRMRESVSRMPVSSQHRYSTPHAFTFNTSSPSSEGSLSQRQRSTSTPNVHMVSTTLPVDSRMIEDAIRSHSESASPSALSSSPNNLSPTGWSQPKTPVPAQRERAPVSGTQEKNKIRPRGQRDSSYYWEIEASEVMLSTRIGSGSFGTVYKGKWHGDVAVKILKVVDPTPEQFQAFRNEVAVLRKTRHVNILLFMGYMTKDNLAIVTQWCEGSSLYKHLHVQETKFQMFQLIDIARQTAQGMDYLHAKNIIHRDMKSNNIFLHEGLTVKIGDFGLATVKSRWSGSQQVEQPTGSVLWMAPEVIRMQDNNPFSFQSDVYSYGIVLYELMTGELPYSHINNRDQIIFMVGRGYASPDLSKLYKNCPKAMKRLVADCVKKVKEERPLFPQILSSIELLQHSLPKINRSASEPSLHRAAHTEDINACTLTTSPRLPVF
Sequence of MAPKAP5 (Q8IW41 whole entry): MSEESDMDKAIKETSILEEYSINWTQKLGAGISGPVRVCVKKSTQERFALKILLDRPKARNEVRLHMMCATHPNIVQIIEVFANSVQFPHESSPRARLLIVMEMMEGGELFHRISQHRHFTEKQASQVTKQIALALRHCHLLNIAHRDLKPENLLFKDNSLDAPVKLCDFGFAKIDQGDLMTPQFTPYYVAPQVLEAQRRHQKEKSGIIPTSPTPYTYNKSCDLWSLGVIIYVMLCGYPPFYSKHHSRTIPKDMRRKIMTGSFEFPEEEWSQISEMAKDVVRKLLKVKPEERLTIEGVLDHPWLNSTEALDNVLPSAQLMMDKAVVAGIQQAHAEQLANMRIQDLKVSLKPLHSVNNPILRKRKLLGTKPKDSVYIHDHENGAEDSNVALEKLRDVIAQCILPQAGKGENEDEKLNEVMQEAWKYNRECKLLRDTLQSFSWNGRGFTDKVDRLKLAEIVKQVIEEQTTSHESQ
Sequence of Pim2 (Q9P1W9 whole entry, species assumed): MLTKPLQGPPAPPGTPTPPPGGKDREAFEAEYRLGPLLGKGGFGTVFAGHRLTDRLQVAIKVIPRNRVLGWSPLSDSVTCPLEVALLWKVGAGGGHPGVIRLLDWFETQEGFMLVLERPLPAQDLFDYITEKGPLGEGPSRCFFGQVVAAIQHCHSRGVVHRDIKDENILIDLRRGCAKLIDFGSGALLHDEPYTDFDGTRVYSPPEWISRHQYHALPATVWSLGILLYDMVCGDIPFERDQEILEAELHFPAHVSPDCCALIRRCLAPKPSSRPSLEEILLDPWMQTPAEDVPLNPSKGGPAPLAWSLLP

- COMPOUND 102 ACTIVITY (% KINASE ACTIVITY) [1]: 0.79%
- COMPOUND 102 ACTIVITY (% KINASE ACTIVITY) [2]: 9.88%
- COMPOUND 102 ACTIVITY (% KINASE ACTIVITY) [3]: 1.55%
- COMPOUND 102 ACTIVITY (% KINASE ACTIVITY) [4]: 4.59%
- COMPOUND 102 ACTIVITY (% KINASE ACTIVITY) [5]: 1.55%
- COMPOUND 102 ACTIVITY (% KINASE ACTIVITY) [6]: −2.63%
- COMPOUND 102 ACTIVITY (% KINASE ACTIVITY) [7]: −0.3%
- COMPOUND 102 ACTIVITY (% KINASE ACTIVITY) [8]: −1.12%
- COMPOUND 102 ACTIVITY (% KINASE ACTIVITY) [9]: 9.05%
- COMPOUND 102 ACTIVITY (% KINASE ACTIVITY) [10]: −10.34%
- COMPOUND 102 ACTIVITY (% KINASE ACTIVITY) [11]: −8.06%
- COMPOUND 102 ACTIVITY (% KINASE ACTIVITY) [12]: −3.05%
- COMPOUND 102 ACTIVITY (% KINASE ACTIVITY) [13]: 1.72%
- COMPOUND 102 ACTIVITY (% KINASE ACTIVITY) [14]: −19.24%
- COMPOUND 102 ACTIVITY (% KINASE ACTIVITY) [15]: 4.56%
- COMPOUND 102 ACTIVITY (% KINASE ACTIVITY) [16]: 11.12%
- COMPOUND 102 ACTIVITY (% KINASE ACTIVITY) [17]: 18.79%
- COMPOUND 102 ACTIVITY (% KINASE ACTIVITY) [18]: 5.08%
- p70S6K inhibited by [19]: 24.3%
- activity of Lyn kinase (h) relative to the DMSO control ([20]; 100 μM, 30 minutes pre-incubation on ice, 10 μM ATP, 40 minutes at room temperature): more than 3 fold
- EC50 ([20]; 30 minutes pre-incubation on ice, 10 μM ATP): 650 nM
- Fold-Activation [21, 23]: 1.1 fold
- Fold-Activation [21, 24]: 1.2 fold
- Fold-Activation [21, 25]: 1.6 fold
- Fold-Activation [21, 26]: 2.4 fold
- Fold-Activation ([21]; Reaction Buffer): 1.6 fold
- % Phosphorylation of Substrate [21, 23]: 33.6%
- % Phosphorylation of Substrate [21, 24]: 80.9%
- % Phosphorylation of Substrate [21, 25]: 83.4%
- % Phosphorylation of Substrate [21, 26]: 33.3%
- % Phosphorylation of Substrate ([21]; Reaction Buffer): 16.2%
- effect on the Km for ATP [22]: did not alter the Km for ATP
- increase of the Vmax of Lyn kinase [22]: 3 fold
Structure (SMILES): Cc1cccc(Oc2cnc(=O)[nH]c2)c1 [Compound 102]
- concentration dependence of Lyn kinase (h) activity ([20]; 1, 3, 10, 30 and 100 μM): increased with Compound 102 concentration in a dose-dependent manner
